Laboratory results as given in US20170246241A1, “Methods for the Selective Treatment of Tumors by Calcium-Mediated Induction of Apoptosis” (priority 2003, published 2017).
Entries after “also recorded” stand apart in the source; their conditions may differ.

Legend:
[1] = test system: MEL-STR cells; assay: Annexin V-FITC apoptosis detection by flow cytometry (apoptotic+dead cells); assay type: cell-based, human; conditions: for fold more potent at inducing apoptosis in STR compared to STVP cells: 5 hour exposure (FIGS. 13, 14); for greater sensitivity / potency advantage, malignant versus non-malignant cells, induction of apoptosis: 5 hrs exposure (FIG. 3, FIG. 4)
Procedure: (§1) FIG. 2. […] Malignant (MEL-STR) and non-malignant (MEL-STVP) cells used in these experiments were derived originally from normal human foreskin melanocytes obtained from the Weisberg lab. These original surgical samples were genetically modified to grow continuously in vitro and are non-tumor-forming in a nude mouse model. These same cells were genetically modified further to generate the tumor-forming cell line and were propagated.
Apoptotic+dead cells were assayed in this experiment and those that follow below on a Becton-Dickenson flow cytometer using an Annexin V-FITC Apoptosis Detection Kit as described by the manufacturer.
Drug exposure time was 5 hrs. Viable and live cells were measured by FACS and by Coulter counting, respectively. […] Panels A & B: solid circles and lines, STR cells; open circles and broken lines, STVP cells; Panel B, inverse logit/log plot of the data from Panel A. Solid gray circles in Panel B (extrapolated minimum values on abscissa) were used to plot the maximum values shown in Panel A.

[2] = test system: certain cancers; conditions: in vivo; cited from earlier work
[3] = test system: MEL-STR cells; assay: Cell morphology (FACS light scatter, microscopic examination); assay type: cell-based, human
From the text: Calmodulin is known to be required for traverse of late G1, G2, and specific periods during mitosis and coincides with periods of elevated […] levels.
The involvement of a form of PKC in the enzyme tetrad that is involved in Ca^2+-dependent, cell cycle phase transitions is given in FIG. 4. […] Four different means for assaying the effect of these two chemicals are shown.

[4] = test system: MEL-STR cells; assay: Annexin V-FITC apoptosis detection by flow cytometry (apoptotic+dead cells); assay type: cell-based, human; conditions: 60 μm W-7, time course over 24 hrs
[5] = test system: MEL-STVP cells; assay: as above; assay type: cell-based, human
From the text: as §1, with “propagated. Thus, this represents an ideal pair of highly similar cells by which drug specificity between normal and malignant cells can be assessed.” for “propagated.”
Transformed MEL-STR cells were incubated over a period of 24 hrs in the presence of a previously determined ineffective concentration (10 μm) of the CAM antagonist W-7 or the drug vehicle DMSO (1%) as controls and a concentration of 60 μm W-7 as illustrated. Apoptotic+dead cells were assayed in this experiment and those that follow below on a Becton-Dickenson flow cytometer using an Annexin V-FITC Apoptosis Detection Kit as described by the manufacturer.
Drug exposure time was 5 hrs. Viable and live cells were measured by FACS and by Coulter counting, respectively. Dose-dependent decreases in viable cells were inversely proportional to the number of Annexin+Propidium Iodide positive staining cells (data not shown) in these and the following experiments. […]

[6] = test system: STVP cells; assay: Cell density / growth inhibition by Coulter counting; assay type: cell-based, human; conditions: PP2B-AIP alone, wide concentration range, 24 hours
Procedure: Closed circles, solid lines, PP2B-AIP only; open circles, dashed lines, PP2B+C6C (15 uM). Cell density was quantified by Coulter counting which measures only cells with Panel A, STR cells; Panel B, STVP cells. Closed circles, solid lines, PP2B-AIP only; open circles, dashed lines, PP2B+C6C (15 uM). Cell density was quantified by Coulter counting which measures only cells with ionically intact plasma membranes (presumed live cells). Drug exposure time was 24 hours. Cell density values are expressed as a percentage of maximum for no drug or C6C only controls. Solid black lines in Panels A & B and dashed line in Panel B represent the average of all values across the PP2B-AIP concentration range. The ability of PKC agonists on apoptosis induction is potentiated by antagonists of Calmodulin-dependent protein phosphatase (a.k.a. Calcineurin or PP2B) and these effects occur at lower drug concentrations in transformed cells than in untransformed cells. […]

[7] = test system: STR cells; conditions: PP2B-AIP alone, wide concentration range, 24 hours
Procedure: Panel B, cell density measured by Coulter counting; Panel C, morphological changes measured by changes in forward light scatter as measured by FACS; Panel D, percentage of spherical cells was determined on live cell populations by counting approximately 500 cells in a representative field using an inverted phase contrast microscope.
Closed circles, solid lines, PP2B-AIP only; open circles, dashed lines, PP2B+C6C (15 uM). Cell density was quantified by Coulter counting which measures only cells with Panel A, STR cells; Panel B, STVP cells. Closed circles, solid lines, PP2B-AIP only; open circles, dashed lines, PP2B+C6C (15 uM). Cell density was quantified by Coulter counting which measures only cells with ionically intact plasma membranes (presumed live cells). Drug exposure time was 24 hours. Cell density values are expressed as a percentage of maximum for no drug or C6C only controls. Solid black lines in Panels A & B and dashed line in Panel B represent the average of all values across the PP2B-AIP concentration range ionically intact plasma membranes (presumed live cells). Drug exposure time was 24 hours. Cell density values are expressed as a percentage of maximum for no drug or C6C only controls. Solid black lines in Panels A & B and dashed line in Panel B represent the average of all values across the PP2B-AIP concentration range.

[8] = PP2B-AIP alone, over the concentration range tested

CCCCCCCCCCCCC/C=C/[C@@H](O)[C@H](CO)NC(=O)CCCCC [C6C, N-Hexanoyl-D-erythro-Sphingosine]
fold more potent at inducing apoptosis in STR compared to STVP cells [1]: ca. 6 fold
potentiation of induction of apoptosis in combination with W-7 ([1]; C6C combined with W-7, 5 hr exposure): potentiated
greater sensitivity / potency advantage, malignant versus non-malignant cells, induction of apoptosis ([1]; MEL-STR vs MEL-STVP): ~10 fold

C=C1/C(=C\C=C2/CCC[C@]3(C)[C@@H]([C@H](C)CCCC(C)(C)O)CC[C@@H]23)C[C@@H](O)C[C@@H]1O [Calcitriol]
reduction of the incidence of certain cancers [2]: 17-20%

CCCCCCCCCCCCCC(=O)O[C@@H]1[C@@H](C)[C@@]2(O)[C@@H](C=C(CO)C[C@]3(O)C(=O)C(C)=C[C@@H]23)[C@@H]2C(C)(C)[C@]12OC(C)=O [PMA, Phorbol-12-Myristate-13-Acetate]
potentiation of induction of apoptosis in combination with W-7 (Annexin assay) ([1]; PMA combined with submaximal W-7): shows potentiation; also recorded: synergy
potentiation of cell shape change in combination with W-7 ([3]; PMA combined with W-7, light scatter by FACS and microscopic examination): Potentiation is also confirmed; also recorded: synergistic drug effects

Oc1ccc(Nc2nc(-c3ccc(Cl)cc3)cs2)cc1 [SKi, 4-[[4-(4-Chlorophenyl)-1,3-thiazol-2-yl]amino]phenol]
potentiation of induction of apoptosis in combination with W-7 ([1]; SKi combined with W-7): synergy

Cl.NCCCCCCNS(=O)(=O)c1cccc2c(Cl)cccc12 [W-7, N-(6-aminohexyl)-5-chloro-1-naphthalenesulfonamide hydrochloride]
induction of apoptosis at 10 μm ([1]; 10 μm, previously determined): ineffective
fold more potent at inducing apoptosis in STR compared to STVP cells [1]: ca. 5 fold
sensitivity to induction of apoptosis, malignant versus non-malignant cells ([1]; MEL-STR vs MEL-STVP, 5 hr. exposure, dose response (FIG. 3)): more than 10 times
greater sensitivity / potency advantage, malignant versus non-malignant cells, induction of apoptosis ([1]; MEL-STR vs MEL-STVP): 10 fold
time at which morphological rounding of cells can be observed ([3]; 60 μm W-7, microscopically or by FACS light scatter): 1 hr
population scoring positively for apoptosis [4]: > 90%
time at which induction of apoptosis can be seen [4]: 3 h

Ac-RRRRRRRRRRRGGGRMAPPRRDAMPSDA-NH2 [PP2B-AIP]
induction of apoptosis, drug alone [1, 8]: no visible induction of apoptosis
maximum of cells killed ([1]; PP2B-AIP with C6C, 5 hr. exposure): ≤ 50%
potentiation of apoptosis in combination with C6C ([1]; combined with C6C): potentiation is seen only in the transformed MEL-STR cell line
induction of apoptosis, drug alone [5, 8]: no visible induction of apoptosis
potentiation of apoptosis in combination with C6C ([5]; combined with C6C): not in untransformed MEL-STVP cells
effect on growth, drug alone [6]: no discernible effect
effect on growth, drug alone [7]: no discernible effect
